Assay results reported in patent publication US8883782B2, “Spiro-tetracyclic ring compounds as beta-secretase modulators and methods of use” (Amgen Inc., priority 2010, dated 2014).
Where two headings read alike, the source gives them in different places.

Tests used:
[1] = tested on: Abeta 40 in cerebrospinal fluid (CSF) and brain; assay: In vivo inhibition of beta-secretase (Abeta 40 reduction in CSF and brain); conditions: rat, after 4 hrs; for inhibition in vivo at 10 mg/kg: Abeta 40, 10 mg/kg (10 mpk); for inhibition in vivo at 3 mg/kg: Abeta 40, 3 mpk
Excerpt: In Vivo Inhibition of Beta-Secretase
Several animal models, including mouse, rat, dog, and monkey, may be used to screen for inhibition of beta-secretase activity in vivo following administration of a test compound sample. Animals used in this invention can be wild type, transgenic, or gene knockout animals. […] A separate group of animals receive 2% hydroxypropyl methylcellulose, 1% Tween80 alone, containing no test compound, and serve as a vehicle-control group. At the end of the test period, animals are sacrificed and brain tissues, plasma or cerebrospinal fluid are collected. […] Homogenates are centrifuged at 355,000 g, 4° C. for 30 minutes. CSF or brain supernatants are then analyzed for the presence of A-beta peptide by specific sandwich ELISA assays based on ECL (Electrochemiluminescence) technology. For example, rat Abeta40 is measured using biotinylated-4G8 (Signet) as a capture antibody and Fab40 (an in-house antibody specific to the C-terminal of Abeta40) as a detection antibody.
Actual vehicles used: Oral: 2% HPMC, 1% Tween80, pH 2.2

[2] = target: Beta Secretase enzyme (BACE) (Homo sapiens, UniProt P56817); assay: In vitro enzymatic BACE FRET (fluorescence resonance energy transfer) assay; format: biochemical
Chain of Beta Secretase enzyme (BACE) (P56817 46-501, species assumed): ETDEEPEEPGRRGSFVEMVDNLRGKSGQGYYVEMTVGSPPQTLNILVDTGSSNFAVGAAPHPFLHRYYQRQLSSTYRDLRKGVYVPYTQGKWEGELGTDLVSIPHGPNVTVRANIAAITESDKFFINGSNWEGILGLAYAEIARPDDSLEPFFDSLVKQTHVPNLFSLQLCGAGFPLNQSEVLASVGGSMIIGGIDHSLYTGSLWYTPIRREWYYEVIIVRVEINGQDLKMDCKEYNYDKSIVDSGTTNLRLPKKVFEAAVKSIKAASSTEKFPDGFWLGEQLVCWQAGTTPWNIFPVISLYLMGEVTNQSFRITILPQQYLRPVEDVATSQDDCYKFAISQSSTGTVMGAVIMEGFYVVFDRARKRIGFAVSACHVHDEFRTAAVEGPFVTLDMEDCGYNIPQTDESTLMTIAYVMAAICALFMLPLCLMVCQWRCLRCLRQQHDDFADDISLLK
Summary of the method: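 Acetate buffer (0.05 M, pH 4.2), 10% DMSO final, 100 uM nonionic detergent genapol. Substrate addition (50 nM FRET peptide) initiates; one-hour incubation; Tris raises pH to neutrality before fluorescence measurement.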

[3] = tested on: Aβ40 in conditioned medium of cells stably expressing Amyloid Precursor Protein (APP); assay: In vitro BACE cell-based assay (Aβ40 in conditioned medium, sandwich ELISA); conditions: Homo sapiens
Summary of the method: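 Step two: 10-point compound titration added, starting 100 μM or 10 μM, 0.1% DMSO. Step three: medium Aβ40 measured by ELISA, capture 3 h and detection 2 h at 4° C, TRF read.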

[4] = CSF, read-out: CSF A-beta reduction % at 10 mg/kg
[5] = brain, read-out: Brain A-beta reduction % at 10 mg/kg
[6] = average IC50, enzyme assay, read-out: BACE 1 FRET assay
[7] = HEK293, average IC50, read-out: HEK cell assay
[8] = HEK293, average IC50, HEK cells, read-out: HEK cell assay
[9] = CSF, read-out: CSF A-beta reduction % at 3 mpk
[10] = brain, read-out: Brain A-beta reduction % at 3 mpk

| SMILES | IC50 [2, 6] [µM] | IC50 [3, 7] [µM] | IC50 [3, 8] [µM] | inhibition in vivo at 10 mg/kg [1, 4] [%] | inhibition in vivo at 10 mg/kg [1, 5] [%] | inhibition in vivo at 3 mg/kg [1, 9] [%] | inhibition in vivo at 3 mg/kg [1, 10] [%] | IC50 ([2]; BACE 1 FRET assay (uM)) [µM] | IC50 ([3]; HEK293, read-out: HEK cell assay (uM), average IC50, HEK cell assay) [µM] | IC50 ([3]; HEK293, read-out: HEK cell assay (uM), average IC50, HEK cells) [µM] |
| --- | --- | --- | --- | --- | --- | --- | --- | --- | --- | --- |
| CC1(C)C=C(c2cc3c(cn2)Oc2ccc(-c4ccc(F)nc4)cc2[C@@]32COC(N)=N2)CCO1 [Example 369, (S)-3-(6,6-dimethyl-3,6-dihydro-2H-pyran-4-yl)-7-(6-fluoropyridin-3-yl)-5′H-spiro[chromeno[2,3-c]pyridine-5,4′-oxazol]-2′-amine] | 0.0028 | 0.0162 | – | 46 | 31 | – | – | – | – | – |
| NC1=N[C@@]2(CS1)c1cc(-c3cccnc3F)ccc1Oc1cnc(C3=CCCOC3)cc12 [Example 928, (S)-3-(5,6-dihydro-2H-pyran-3-yl)-7-(2-fluoropyridin-3-yl)-5′H-spiro[chromeno[2,3-c]pyridine-5,4′-thiazol]-2′-amine] | 0.0004 | – | 0.008 | 82 | 71 | – | – | – | – | – |
| N#Cc1cccc(-c2ccc3c(c2)[C@@]2(COC(N)=N2)c2cc(N4CCOCC4)nc(F)c2O3)c1 [Example 894, 3-((5S)-2′-amino-1-fluoro-3-(4-morpholinyl)spiro[chromeno[2,3-c]pyridine-5,4′-[1,3]oxazol]-7-yl)benzonitrile] | 0.0003 | – | 0.01 | 75 | 69 | – | – | – | – | – |
| NC1=N[C@@]2(CO1)c1cc(-c3cccnc3F)ccc1Oc1c(F)cc(N3CC4CCC(C3)O4)cc12 [Example 225, (4S)-2′-(8-oxa-3-azabicyclo[3.2.1]octan-3-yl)-4′-fluoro-7′-(2-fluoropyridin-3-yl)-5H-spiro[oxazole-4,9′-xanthen]-2-amine] | 0.0003 | 0.0016 | – | 64 | 47 | – | – | – | – | – |
| NC1=N[C@@]2(CS1)c1cc(-c3cccnc3F)ccc1Oc1c2cc(-c2ccnc(F)c2)nc1F (single isomer, unassigned) [Example 996] | 0.0002 | 0.013 | – | 55 | 43 | – | – | – | – | – |
| NC1=N[C@@]2(CO1)c1cc(-c3c(F)ccnc3F)ccc1Oc1cnc(C3=CCCOC3)cc12 [Example 676, (5S)-7-(2,4-difluoro-3-pyridinyl)-3-(5,6-dihydro-2H-pyran-3-yl)spiro[chromeno[2,3-c]pyridine-5,4′-[1,3]oxazol]-2′-amine] | 0.0006 | – | 0.006 | – | – | 76 | 74 | – | – | – |
| Cc1cnc(F)c(-c2ccc3c(c2)[C@@]2(COC(N)=N2)c2cc(N4CCOCC4)cc(F)c2O3)c1 [Example 132, (S)-4′-fluoro-7′-(2-fluoro-5-methylpyridin-3-yl)-2′-morpholino-5H-spiro[oxazole-4,9′-xanthen]-2-amine] | 0.0015 | 0.006 | – | 54 | 45 | – | – | – | – | – |
| NC1=N[C@@]2(CS1)c1cc(-c3cccnc3F)ccc1Oc1c(F)cc(N3CCC(F)(F)CC3)cc12 [Example 1076, (S)-2′-(4,4-difluoropiperidin-1-yl)-4′-fluoro-7′-(2-fluoropyridin-3-yl)-5H-spiro[thiazole-4,9′-xanthen]-2-amine] | 0.0004 | 0.014 | – | 63 | 33 | – | – | – | – | – |
| NC1=N[C@@]2(CS1)c1cc(-c3cccnc3F)ccc1Oc1ncc(C3=CCOCC3)cc12 [Example 97, (S)-3-(3,6-dihydro-2H-pyran-4-yl)-7-(2-fluoropyridin-3-yl)-5′H-spiro[chromeno[2,3-b]pyridine-5,4′-thiazol]-2′-amine] | 0.0005 | – | 0.0076 | 46 | 28 | – | – | – | – | – |
| NC1=N[C@@]2(CO1)c1cc(-c3c(F)ccnc3F)ccc1Oc1cnc(C3=CCOCC3)cc12 [Example 89, (5S)-7-(2,4-difluoro-3-pyridinyl)-3-(3,6-dihydro-2H-pyran-4-yl)spiro[chromeno[2,3-c]pyridine-5,4′-[1,3]oxazol]-2′-amine] | – | – | – | 80 | 69 | – | – | 0.0007 | 0.0047 | – |
| NC1=N[C@@]2(CO1)c1cc(-c3cccnc3F)c(F)cc1Oc1c(F)cc(C3=CCOCC3)cc12 (single isomer, unassigned) [Example 867] | – | – | – | 56 | 39 | – | – | 0.0003 | – | 0.005 |

Second part, led by results:

| IC50 [2, 6] [µM] | IC50 [3, 7] [µM] | IC50 [3, 8] [µM] | SMILES | inhibition in vivo at 10 mg/kg [1, 4] [%] | inhibition in vivo at 10 mg/kg [1, 5] [%] | inhibition in vivo at 3 mg/kg [1, 9] [%] | inhibition in vivo at 3 mg/kg [1, 10] [%] | IC50 ([2]; BACE 1 FRET assay (uM)) [µM] | IC50 ([3]; HEK293, read-out: HEK cell assay (uM), average IC50, HEK cell assay) [µM] | IC50 ([3]; HEK293, read-out: HEK cell assay (uM), average IC50, HEK cells) [µM] |
| --- | --- | --- | --- | --- | --- | --- | --- | --- | --- | --- |
| 0.0003 | 0.009 | – | NC1=N[C@@]2(CS1)c1cc(-c3cccnc3F)ccc1Oc1c(F)cc(N3CCC(F)(F)C3)cc12 [Example 1077, (S)-2′-(3,3-difluoropyrrolidin-1-yl)-4′-fluoro-7′-(2-fluoropyridin-3-yl)-5H-spiro[thiazole-4,9′-xanthen]-2-amine] | 69 | 53 | – | – | – | – | – |
| 0.0075 | 0.102 | – | NC1=N[C@@]2(CS1)c1cc(-c3cccnc3F)ccc1Oc1c(F)cc(N3C[C@@H]4C[C@H]3CO4)cc12 [Example 1084, (S)-2′-((1S,4S)-2-oxa-5-azabicyclo[2.2.1]heptan-5-yl)-4′-fluoro-7′-(2-fluoropyridin-3-yl)-5H-spiro[thiazole-4,9′-xanthen]-2-amine] | 67 | 50 | – | – | – | – | – |
| 0.0015 | – | 0.0136 | NC1=N[C@@]2(CO1)c1cc(-c3cncc(F)c3)ccc1Oc1cnc(N3CCC(F)(F)CC3)cc12 [Example 414, (5S)-3-(4,4-difluoro-1-piperidinyl)-7-(5-fluoro-3-pyridinyl)spiro[chromeno[2,3-c]pyridine-5,4′-[1,3]oxazol]-2′-amine] | 64 | 44 | – | – | – | – | – |
| 0.0013 | 0.01 | – | CC1(C)C=C(c2cc3c(cn2)Oc2ccc(-c4cncc(F)c4)cc2[C@@]32COC(N)=N2)CCO1 [Example 135, (S)-3-(6,6-dimethyl-3,6-dihydro-2H-pyran-4-yl)-7-(5-fluoropyridin-3-yl)-5′H-spiro[chromeno[2,3-c]pyridine-5,4′-oxazol]-2′-amine] | 61 | 44 | – | – | – | – | – |
| 0.0006 | – | 0.004 | CC#Cc1cncc(-c2ccc3c(c2)[C@@]2(COC(N)=N2)c2cc(C#CC(C)(C)O)cc(F)c2O3)c1 [Example 951, (S)-4-(2-amino-5′-fluoro-2′-(5-(prop-1-ynyl)pyridin-3-yl)-5H-spiro[oxazole-4,9′-xanthene]-7′-yl)-2-methylbut-3-yn-2-ol] | – | – | 17 | 13 | – | – | – |
| 0.001 | – | 0.012 | N#Cc1cccc(-c2ccc3c(c2)[C@@]2(COC(N)=N2)c2cc(N4CCC(F)(F)C4)ncc2O3)c1 [Example 134, (S)-3-(2′-amino-3-(3,3-difluoropyrolidin-1-yl)-5′H-spiro[chromeno[2,3-c]pyridine-5,4′-oxazole]-7-yl)benzonitrile] | 61 | 45 | – | – | – | – | – |
